Results as given in patent US10654837B2, “Sulphamoylaryl derivatives and use thereof as medicaments for the treatment of liver fibrosis” (Janssen Pharmaceutica NV, priority 2017, dated 2020).

Target: T1, 5HTR2B (Homo sapiens, UniProt P41595)
T1 construct: host or cells: human Maverick/293 cells
Assay: 5HTR2B antagonist activity, calcium mobilization assay in human Maverick/293 cells (serotonin as agonist)
Format: cell-based
Details: intracellular calcium, emission 525 nm, read-out: Ca assay IC50
Summary of the method: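 Serum-starved (2 h) human Maverick/293 cells loaded with calcium dye for 50 min at 37 °C, then antagonist preincubated 15-30 min before serotonin challenge. Calcium fluorescence (ex 485/em 525 nm) recorded for 80 s; peak-based % inhibition fitted sigmoidally for IC50.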

T1 sequence (P41595 whole entry): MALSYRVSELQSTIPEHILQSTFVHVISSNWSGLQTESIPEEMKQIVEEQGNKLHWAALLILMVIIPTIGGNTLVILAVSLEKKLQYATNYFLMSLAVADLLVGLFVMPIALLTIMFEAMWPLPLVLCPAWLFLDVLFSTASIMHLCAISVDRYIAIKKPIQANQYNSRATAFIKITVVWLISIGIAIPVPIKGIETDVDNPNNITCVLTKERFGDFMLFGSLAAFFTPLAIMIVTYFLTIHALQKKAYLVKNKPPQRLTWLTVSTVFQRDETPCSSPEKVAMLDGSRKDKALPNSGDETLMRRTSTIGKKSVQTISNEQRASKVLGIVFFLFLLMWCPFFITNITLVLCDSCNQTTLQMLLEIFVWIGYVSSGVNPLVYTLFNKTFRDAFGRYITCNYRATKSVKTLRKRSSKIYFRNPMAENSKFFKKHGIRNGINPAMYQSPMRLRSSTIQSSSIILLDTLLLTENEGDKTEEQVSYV

IC50 [nM]	Compound
1.7	COC[C@H](C)NS(=O)(=O)c1ccc(OC)c(C(=O)Nc2ccc(F)cc2)c1 (single isomer, unassigned) [Compound 40a, (S*)—N-(4-Fluorophenyl)-2-methoxy-5-(N-(1-methoxypropan-2-yl)sulfamoyl) benzamide]
84	COc1ccc(S(=O)(=O)N[C@H]2CCOC2)cc1C(=O)Nc1cc(F)cc(F)c1Cl [Compound 96, (S)—N-(2-Chloro-3,5-difluorophenyl)-2-methoxy-5-(N-(tetrahydrofuran-3-yl)sulfamoyl)benzamide]
405	COc1ccc(S(=O)(=O)N[C@H]2CCOC2)cc1C(=O)Nc1ncccc1C [Compound 133, (S)-2-Methoxy-N-(3-methylpyridin-2-yl)-5-(N-(tetrahydrofuran-3-yl)sulfamoyl) benzamide]
1.9	COc1ccc(S(=O)(=O)NC2CC[C@H](O)C2)cc1C(=O)Nc1ccc(F)cc1 (some centres unmarked) [Compound 45b]
2.5	COc1ccc(S(=O)(=O)N[C@H]2C[C@H](O)C2)cc1C(=O)Nc1ccc(F)cc1F [Compound 145a, N-(2,4-difluorophenyl)-5-(N-((trans)-3-hydroxycyclobutyl)sulfamoyl)-2-methoxybenzamide]
27	COc1ccc(S(=O)(=O)N[C@H]2CCOC2)cc1C(=O)Nc1cccc(OC(F)F)c1 [Compound 107, (S)—N-(3-(Difluoromethoxy)phenyl)-2-methoxy-5-(N-(tetrahydrofuran-3-yl)sulfamoyl)benzamide]
5.4	COc1ccc(S(=O)(=O)N[C@H]2CCOC2)cc1C(=O)Nc1ccc(F)cn1 [Compound 116, (S)—N-(5-Fluoropyridin-2-yl)-2-methoxy-5-(N-(tetrahydrofuran-3-yl)sulfamoyl) benzamide]
12	COc1ccc(S(=O)(=O)N[C@H]2CCOC2)cc1C(=O)Nc1c(F)cccc1F [Compound 105, (S)—N-(2,6-Difluorophenyl)-2-methoxy-5-(N-(tetrahydrofuran-3-yl)sulfamoyl) benzamide]
0.2	COc1ccc(S(=O)(=O)NC2CCC[C@@H]2O)cc1C(=O)Nc1ccccc1Cl (stereo partly drawn) [Compound 61b, N-(2-Chlorophenyl)-5-(N-((trans)-2-hydroxycyclopentyl)sulfamoyl)-2-methoxy benzamide]
0.3	COc1ccc(S(=O)(=O)N[C@@H](C)CO)cc1C(=O)Nc1ccccc1Cl [Compound 55a, (S)—N-(2-Chlorophenyl)-5-(N-(1-hydroxypropan-2-yl)sulfamoyl)-2-methoxy benzamide]
136	COc1ccc(S(=O)(=O)N[C@H]2CCOC2)cc1C(=O)Nc1cccc(C#N)c1F [Compound 92, (S)—N-(3-Cyano-2-fluorophenyl)-2-methoxy-5-(N-(tetrahydrofuran-3-yl)sulfamoyl)benzamide]
0.5	COc1ccc(S(=O)(=O)N[C@H]2CCOC2)cc1C(=O)Nc1ccc(F)c(C2CC2)n1 [Compound 162, (S)—N-(6-Cyclopropyl-5-fluoropyridin-2-yl)-2-methoxy-5-(N-(tetrahydrofuran-3-yl)sulfamoyl)benzamide]
1.5	COc1ccc(S(=O)(=O)N[C@H](C)C(N)=O)cc1C(=O)Nc1ccc(F)cc1 [Compound 46a, (R)-5-(N-(1-Amino-1-oxopropan-2-yl)sulfamoyl)-N-(4-fluorophenyl)-2-methoxybenzamide]
0.9	COc1ccc(S(=O)(=O)N[C@H]2CCOC2)cc1C(=O)Nc1ccccc1C [Compound 163, (S)-2-Methoxy-5-(N-(tetrahydrofuran-3-yl)sulfamoyl)-N-(o-tolyl)benzamide]
8.5	COCC(C)NS(=O)(=O)c1ccc(OC)c(C(=O)Nc2ccc(F)c(C(F)F)c2)c1 (single isomer, unassigned) [Compound 32b, (S*)—N-(3-(Difluoromethyl)-4-fluorophenyl)-2-methoxy-5-(N-(1-methoxypropan-2-yl)sulfamoyl)benzamide]
0.2	COc1ccc(S(=O)(=O)NC2CC[C@@H](O)C2)cc1C(=O)Nc1ccccc1Cl (stereo partly drawn) [Compound 57b, N-(2-Chlorophenyl)-5-(N-((cis)-3-hydroxycyclopentyl)sulfamoyl)-2-methoxy benzamide]
0.4	COc1ccc(S(=O)(=O)N[C@H]2CCOC2)cc1C(=O)Nc1ccc(Cl)cc1F [Compound 114, (S)—N-(4-Chloro-2-fluorophenyl)-2-methoxy-5-(N-(tetrahydrofuran-3-yl)sulfamoyl)benzamide]
7.2	COc1ccc(S(=O)(=O)NC2CCOCC2)cc1C(=O)Nc1ccc(F)c(C)n1 [Compound 17, N-(5-Fluoro-6-methylpyridin-2-yl)-2-methoxy-5-(N-(tetrahydro-2H-pyran-4-yl)sulfamoyl)benzamide]
0.17	COc1ccc(S(=O)(=O)N[C@H]2CCOC2)cc1C(=O)Nc1ccc(F)cc1 [Compound 158, (S)—N-(4-Fluorophenyl)-2-methoxy-5-(N-(tetrahydrofuran-3-yl)sulfamoyl) benzamide]

IC50 [nM]	Compound
37	COc1ccc(S(=O)(=O)N[C@H]2CCOC2)cc1C(=O)Nc1cc(F)c(C#N)cc1F [Compound 98, (S)—N-(4-Cyano-2,5-difluorophenyl)-2-methoxy-5-(N-(tetrahydrofuran-3-yl)sulfamoyl)benzamide]
1.4	COc1ccc(S(=O)(=O)N[C@@H](C)C(N)=O)cc1C(=O)Nc1ccc(F)c(C(F)F)c1 [Compound 34a, (S)-5-(N-(1-Amino-1-oxopropan-2-yl)sulfamoyl)-N-(3-(difluoromethyl)-4-fluorophenyl)-2-methoxybenzamide]
4.6	COc1ccc(S(=O)(=O)N[C@H]2CCOC2)cc1C(=O)Nc1ccc(F)c(C(F)(F)F)c1 [Compound 160, (S)—N-(4-Fluoro-3-(trifluoromethyl)phenyl)-2-methoxy-5-(N-(tetrahydrofuran-3-yl)sulfamoyl)benzamide]
1.1	[2H]C([2H])([2H])Oc1ccc(S(=O)(=O)N[C@H]2CCOC2)cc1C(=O)Nc1ccc(F)c(C)c1 [Compound 191, (S)—N-(4-fluoro-3-methylphenyl)-2-(methoxy-d3)-5-(N-(tetrahydrofuran-3-yl)sulfamoyl)benzamide]
33	COc1ccc(S(=O)(=O)N[C@H]2CCOC2)cc1C(=O)Nc1ncc(F)c(C)n1 [Compound 172, (S)—N-(5-fluoro-4-methylpyrimidin-2-yl)-2-methoxy-5-(N-(tetrahydrofuran-3-yl)sulfamoyl)benzamide]
66.3	COc1ccc(S(=O)(=O)NC2(CO)COC2)cc1C(=O)Nc1ccc(F)c(C)c1 [Compound 13, N-(4-Fluoro-3-methylphenyl)-5-(N-(3-(hydroxymethyl)oxetan-3-yl)sulfamoyl)-2-methoxybenzamide]
0.4	COc1ccc(S(=O)(=O)N[C@@H](C)CC#N)cc1C(=O)Nc1ccccc1Cl (single isomer, unassigned) [Compound 60a, (S*)—N-(2-Chlorophenyl)-5-(N-(1-cyanopropan-2-yl)sulfamoyl)-2-methoxy benzamide]
3.1	COc1ccc(S(=O)(=O)N[C@H]2CCOC2)cc1C(=O)Nc1c(F)cc(F)cc1F [Compound 76, (S)-2-Methoxy-5-(N-(tetrahydrofuran-3-yl)sulfamoyl)-N-(2,4,6-trifluorophenyl) benzamide]
8.4	COc1ccc(S(=O)(=O)N[C@H]2CCOC2)cc1C(=O)Nc1c(F)cccc1Cl [Compound 103, (S)—N-(2-Chloro-6-fluorophenyl)-2-methoxy-5-(N-(tetrahydrofuran-3-yl)sulfamoyl)benzamide]
173	COc1ccc(S(=O)(=O)NC2CCN(C)CC2)cc1C(=O)Nc1ccc(F)c(C)n1 [Compound 19, N-(5-Fluoro-6-methylpyridin-2-yl)-2-methoxy-5-(N-(1-methylpiperidin-4-yl)sulfamoyl)benzamide]
5.5	COc1ccc(S(=O)(=O)N[C@H]2CCOC2)cc1C(=O)Nc1ccc(Cl)cc1 [Compound 108, (S)—N-(4-Chlorophenyl)-2-methoxy-5-(N-(tetrahydrofuran-3-yl)sulfamoyl) benzamide]
65	COc1ccc(S(=O)(=O)N[C@H]2CCOC2)cc1C(=O)Nc1nccs1 [Compound 64, (S)-2-Methoxy-5-(N-(tetrahydrofuran-3-yl)sulfamoyl)-N-(thiazol-2-yl) benzamide]
329	COc1ccc(S(=O)(=O)N[C@H]2C[C@@H](O)C2)cc1C(=O)Nc1c(C)cccc1Cl [Compound 138b, N-(2-Chloro-6-methylphenyl)-5-(N-((cis)-3-hydroxycyclobutyl)sulfamoyl)-2-methoxybenzamide]
14	COc1ccc(S(=O)(=O)N(C)[C@H]2CCOC2)cc1C(=O)Nc1ccc(F)c(C)n1 [Compound 189, (S)—N-(5-fluoro-6-methylpyridin-2-yl)-2-methoxy-5-(N-methyl-N-(tetrahydrofuran-3-yl)sulfamoyl) benzamide]
12	COc1ccc(S(=O)(=O)N[C@H]2CCOC2)cc1C(=O)Nc1ccc(C)cc1 [Compound 129, (S)-2-Methoxy-5-(N-(tetrahydrofuran-3-yl)sulfamoyl)-N-(p-tolyl)benzamide]
10	COc1ccc(S(=O)(=O)N[C@H]2CCOC2)cc1C(=O)Nc1cccc2c1cnn2C [Compound 110, (S)-2-Methoxy-N-(1-methyl-1H-indazol-4-yl)-5-(N-(tetrahydrofuran-3-yl)sulfamoyl)benzamide]
1.6	COc1ccc(S(=O)(=O)N[C@H]2CCNC2)cc1C(=O)Nc1ccc(F)c(C)n1 [Compound 175, (S)—N-(5-Fluoro-6-methylpyridin-2-yl)-2-methoxy-5-(N-(pyrrolidin-3-yl)sulfamoyl)benzamide]
0.4	CCOc1ccccc1NC(=O)c1cc(S(=O)(=O)N[C@H]2CCOC2)ccc1OC [Compound 136, (S)—N-(2-ethoxyphenyl)-2-methoxy-5-(N-(tetrahydrofuran-3-yl)sulfamoyl) benzamide]
1.3	COc1ccc(S(=O)(=O)N[C@H]2CCOC2)cc1C(=O)Nc1ccc(F)c(F)c1 [Compound 111, (S)—N-(3,4-Difluorophenyl)-2-methoxy-5-(N-(tetrahydrofuran-3-yl)sulfamoyl) benzamide]
